Results on 1 compound are retold here after patent publication US8097733B2, “Pyrazole derivatives as 5-LO-inhibitors” (Pfizer Inc., priority 2007, dated 2012).

This data set is described as follows: Emesis evaluation in beagle dogs, IV infusion. The format is in vivo. Particulars: 8-12 kg beagle dogs, loading dose followed by slow infusion. How it is done:
The occurrence of these gastrointestinal symptoms after administration of these compounds limited their clinical utility. Experiments are undertaken to differentiate local gastrointestinal emetic stimuli during dissolution and absorption of an oral compound from emetic stimuli produced during systemic exposure through the bloodstream. […] These findings are observed after 8-12 kg purpose-bred beagle dogs are administered 4-(3-{[4-(1-methyl-1H-pyrazol-5-yl)phenyl]thio}phenyl)tetrahydro-2H-pyran-4-carboxamide by IV infusion, using a loading dose followed by a slow infusion to attain a peak blood level over 30 minutes to 1 hour in duration. More specifically, compounds are diluted in phosphate buffered saline to a concentration where 10 ml/kg total volume was administered through an intravenous catheter using an infusion pump, with approximately 90% of the total dose being delivered in the first 5 minutes, and the remaining dose administered over the next 25 minutes. Similar delivery methods to produce an exposure that approximates the systemic pharmacokinetic profile seen with oral delivery are anticipated to give similar results. […] For compounds of the invention, emesis, can for example be evaluated by administering the named compound orally at doses of 10 mg per kg, 100 mg per kg fasted, and 100 mg per kg fed, and evaluating emesis in dogs. […]

Turning to `Cn1nccc1-c1ccc(Sc2cccc(C3(C(N)=O)CCOCC3)c2)cc1` [4-(3-{[4-(1-methyl-1H-pyrazol-5-yl)phenyl]thio}phenyl)tetrahydro-2H-pyran-4-carboxamide], the nausea and emesis result was “produce nausea and emesis through systemic exposure”.
